Common to all, as to test: NCI-60 cell line screen, 48 h
The subject of test [1] is A498.
Test [2] deals with ACHN.
Test [3] deals with CAKI-1.
Test [4] has as its system CCRF-CEM.
Test [5] concerns HCC 2998.
Test [6] deals with HCT-116.
Test [7] concerns HOP-62.
In test [8] the test system is IGROV-1.
The test system of test [9] is KM12.
In test [10] the test system is MCF7.
Test [11] deals with MDA-MB-231.
The subject of test [12] is NCI-H460.
For test [13], the system named is NCI-H522.
The subject of test [14] is OVCAR-3.
In test [15] the test system is RPMI-8226.
Test [16] has as its system SNB-19.
The subject of test [17] is SW-620.
The subject of test [18] is T47D.
Test [19] relates to U-251.

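Results reflect a 48-hour exposure of cells in 96-well plates to compound at five concentrations. GI50 marks 50% less growth.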 Activity calls are given as the source filed them. Cut-off read from the data, not from the text of the source: active = GI50 up to about 1.1 µM and inactive = higher.

In the case of `Nc1c(OCC(=O)O)ccc2cc(S(=O)(=O)O)ccc12`, the GI50 in test [1], in test [2], in [3], in [4], in [5] and in test [6] was > 100 µM (inactive) each time. In addition, the GI50 in test [7], in test [8], in test [9], in [10], in test [11] and in test [12] was > 100 µM (inactive) each time. Moreover, the GI50 in test [13], in test [14], in test [15], in [16], in [17] and in test [18] was > 100 µM (inactive) throughout. Moreover, the GI50 in [19] was > 100 µM (inactive).

In the case of `COc1cc(/C=C2\C(=O)N(c3ccc(Cl)cc3)C(c3ccccc3)S2(=O)=O)cc(OC)c1OC` (centres undefined), the GI50 is > 45.5 µM (inactive) in test [1]; 38.5 µM (inactive) in test [3]; 8.53 µM (inactive) in test [4]; 41.4 µM (inactive) in test [5]; 3.37 µM (inactive) in test [6]; > 34.5 µM (inactive) in test [7]. The GI50 in [9] is 3.72 µM (inactive); in test [10] it was 4.61 µM (inactive); in test [11] it was > 69.3 µM (inactive); in test [12], 3.95 µM (inactive); in test [13], 14.5 µM (inactive); in [14], 25.4 µM (inactive). Further, the GI50 was 7.46 µM (inactive) in test [15]; 20 µM (inactive) in test [16]; 32.2 µM (inactive) in [17]; 2.77 µM (inactive) in test [18]; 29.1 µM (inactive) in test [19].

For the compound `C=C(C)C(=O)O[C@H]1CC2=CC(CC(C)=C[C@H]3OC(=O)C(=C)C13)OC2=O` (some centres undefined), the GI50 is 35.8 µM (inactive) in test [1]; 13.2 µM (inactive) in [2]; 17.2 µM (inactive) in test [3]; 4.74 µM (inactive) in test [4]; 35 µM (inactive) in [5]; 10.8 µM (inactive) in [6]. The GI50 is 33 µM (inactive) in test [8]; 20.3 µM (inactive) in test [9]; 13.1 µM (inactive) in test [10]; 25.2 µM (inactive) in test [11]; 31.1 µM (inactive) in test [12]; 2.53 µM (inactive) in test [13]. For the same compound, the GI50 in test [14] was 24.7 µM (inactive); in test [15], 2.93 µM (inactive); in test [16] it was > 100 µM (inactive); in test [17], 11.8 µM (inactive); in test [18] it was 11.2 µM (inactive); in [19] it was > 100 µM (inactive).

Regarding `Cc1cccc2nc3c(=O)[nH]c(=O)nc-3n(C)c12`, the GI50 in [2] is > 100 µM (inactive); in [3] it was > 100 µM (inactive); in test [4], 28.6 µM (inactive); in [5], 86.1 µM (inactive); in test [6], 30.4 µM (inactive); in test [7], 79.6 µM (inactive). The GI50 in [8] was > 100 µM (inactive); in test [9] it was 31.9 µM (inactive); in test [10] it was 34.5 µM (inactive); in test [11] it was > 100 µM (inactive); in test [12], 48.1 µM (inactive); in [13] it was 29.2 µM (inactive). In addition, the GI50 is 28 µM (inactive) in [14]; 29.7 µM (inactive) in [15]; 71.3 µM (inactive) in test [16]; 39.9 µM (inactive) in [17]; 53.3 µM (inactive) in test [18]; 86.5 µM (inactive) in [19].

On to `C[C@H]1[C@H]2[C@H]3CC[C@@H]4[C@@]5(C)CC[C@H](O)C(C)(C)[C@@H]5CC[C@@]4(C)[C@]3(C)C[C@H](O)[C@@]2(C)C[C@H]2O[C@]21C`, for which the GI50 is 21.4 µM (inactive) in test [1]; 15.2 µM (inactive) in [2]; 25.1 µM (inactive) in test [3]; 32.4 µM (inactive) in test [4]; 17.5 µM (inactive) in test [5]; 16.1 µM (inactive) in [6]. Further, the GI50 is 20.7 µM (inactive) in [7]; 27.4 µM (inactive) in [8]; 19.8 µM (inactive) in [9]; 16.5 µM (inactive) in test [10]; 18 µM (inactive) in test [11]; 18.9 µM (inactive) in [12]. Also, the GI50 in test [13] is 22.3 µM (inactive); in test [14] it was 16.4 µM (inactive); in test [15] it was 19.4 µM (inactive); in test [16], 20.6 µM (inactive); in test [17], 24 µM (inactive); in test [18] it was 16 µM (inactive). Also, the GI50 in test [19] was 17.2 µM (inactive).

For the compound `CCOP(=O)(/C=C/n1ccc(=O)[nH]c1=O)OCC`, the GI50 in test [1], in test [2], in test [3], in test [4], in [6] and in [7] was > 100 µM (inactive) in each case. The GI50 in test [8], in [9], in test [10], in [11], in test [12] and in [13] was > 100 µM (inactive) in each case. The GI50 in test [14], in test [15], in test [16], in test [17], in test [18] and in test [19] was > 100 µM (inactive) each time.

With `c1cc(-c2ccc(-c3ccc(C4=NC5CCCCC5N4)cc3)o2)ccc1C1=NC2CCCCC2N1` (centres undefined), the GI50 in test [1] was 2.86 µM (inactive); in [2] it was 2.36 µM (inactive); in test [3], 5.92 µM (inactive); in [4], 1.79 µM (inactive); in [5] it was 1.3 µM (inactive); in test [6] it was 1.51 µM (inactive). The GI50 in test [7] was 1.5 µM (inactive); in test [9] it was 1.46 µM (inactive); in test [10], 1.21 µM (inactive); in [11], 1.5 µM (inactive); in test [12], 1.84 µM (inactive); in [13], 1.61 µM (inactive). For the same compound, the GI50 in test [14] is 1.85 µM (inactive); in [15], 1.76 µM (inactive); in test [16], 1.47 µM (inactive); in test [17], 2.56 µM (inactive); in [18] it was 1.98 µM (inactive); in test [19] it was 1.44 µM (inactive).

Take `COc1cc(C2SC(=N)Nc3c2c(C)nn3C(=O)c2ccccc2O)ccc1O` (centres undefined): the GI50 in [1] was 4.51 µM (inactive); in test [2] it was 1.21 µM (inactive); in test [3], > 2.42 µM (inactive); in test [4] it was 2.01 µM (inactive); in [5], > 6.62 µM (inactive); in test [7], > 2.61 µM (inactive). Also, the GI50 was 1.61 µM (inactive) in test [8]; > 2.13 µM (inactive) in test [9]; > 2.01 µM (inactive) in [10]; > 3.98 µM (inactive) in test [11]; 0.317 µM (active) in test [12]; > 3.84 µM (inactive) in [13]. The GI50 was > 2.93 µM (inactive) in test [14]; > 2.09 µM (inactive) in test [15]; > 2.39 µM (inactive) in test [16]; > 4.71 µM (inactive) in test [17]; 0.971 µM (active) in test [18]; 1.74 µM (inactive) in [19].

Regarding `CC1(C)CCC2=C(O1)/C(=N\Nc1ccccc1)c1ccccc1C2=O`, the GI50 in test [1] is 20 µM (inactive); in test [2] it was 17.7 µM (inactive); in test [3], 24 µM (inactive); in [4], 56.1 µM (inactive); in [6], 16.9 µM (inactive); in test [7], 35.4 µM (inactive). In addition, the GI50 in test [8] was 34.6 µM (inactive); in test [9], 32.8 µM (inactive); in test [10], 18.9 µM (inactive); in [11] it was 25.4 µM (inactive); in test [12] it was 23.2 µM (inactive); in test [13], 29.4 µM (inactive). Besides, the GI50 in [14] is 24 µM (inactive); in test [15], 31.4 µM (inactive); in [16], 40.4 µM (inactive); in test [17] it was > 100 µM (inactive); in test [18], 18.8 µM (inactive); in test [19], 24.8 µM (inactive).

On to `O=[N+]([O-])/C(C(Cl)=C(Cl)Cl)=C(\NCc1ccccc1)Sc1ccccc1`, for which the GI50 in test [1] was 25.9 µM (inactive); in [2], 35.7 µM (inactive); in test [3] it was 37.3 µM (inactive); in test [4], 32 µM (inactive); in test [5] it was 34.9 µM (inactive); in test [6], 32.4 µM (inactive). Besides, the GI50 is 24 µM (inactive) in [7]; 16.5 µM (inactive) in test [9]; 32.4 µM (inactive) in test [10]; 40.7 µM (inactive) in [11]; 37 µM (inactive) in [12]; 17.6 µM (inactive) in test [14]. In addition, the GI50 was 34.7 µM (inactive) in test [15]; 41.2 µM (inactive) in test [16]; 18.4 µM (inactive) in test [17]; 30.8 µM (inactive) in test [18]; 32.3 µM (inactive) in test [19].

Turning to `O=C1/C(=C/c2ccc(Cl)cc2)N=C(c2ccccc2)N1c1nc2ccc(Sc3ccccc3)cc2[nH]1`, the GI50 in test [1] is 19.8 µM (inactive); in test [2] it was 36.4 µM (inactive); in [3] it was 30.1 µM (inactive); in test [4] it was 22.4 µM (inactive); in [5] it was 17.4 µM (inactive); in test [6] it was 24.2 µM (inactive). The GI50 in test [7] is 40.3 µM (inactive); in test [8], 40.6 µM (inactive); in test [9], 20.7 µM (inactive); in test [10], 22.6 µM (inactive); in test [11] it was 35.2 µM (inactive); in test [12], 22.7 µM (inactive). Further, the GI50 in test [13] was 22.4 µM (inactive); in [14], 35.8 µM (inactive); in [15] it was 19.7 µM (inactive); in test [16], 37.6 µM (inactive); in test [17] it was 23.7 µM (inactive); in test [18] it was 23.1 µM (inactive). Moreover, in [19], the GI50 is 31.3 µM (inactive).
